Results: the supplement of paper PMC10307832

compound: C1CC(C2=C(C1)C3=C(N2)C=CC(=C3)Cl)C(=O)N [Selisistat] + CC(=O)c1c(C)c2cnc(Nc3ccc(N4CCNCC4)cn3)nc2n(C2CCCC2)c1=O [Palbociclib] (partner 0.5 µM); assay: relative viability (nuclei count vs DMSO), 5 days (fraction); higher = more cells survive; conditions: first compound 0.4 µM
Method in brief: (§1)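 Lung cancer cell lines, seeded in 1536-well plates, were treated the following day by pin tool with a single drug or with five library-drug doses (not always all listed) in √10 steps on top of a fixed anchor-drug dose. Cells were fixed and nuclei stained in one step after 5 days, and nuclei were counted. Relative viability is the nuclei count for treated wells divided by that for vehicle wells, reported as medians of duplicate plates.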

Cell Line	relative viability
HCC-78	0.488
NCI-H322M	0.488
LCLC-97TM1	0.234
NCI-H2009	0.202
A-427	0.57
NCI-H441	0.24
NCI-H661	0.421
NCI-H1734	0.366
NCI-H460	0.163
NCI-H2347	0.38
SK-LU-1	0.394
NCI-H1395	0.579
201T	0.369
NCI-H1915	0.612
HCC-827	0.483
LXF-289	0.628
NCI-H23	0.57

Cell Line	relative viability
NCI-H647	0.415
CAL-12T	0.534
NCI-H1651	0.508
EPLC-272H	0.343
NCI-H2228	0.797
NCI-H1792	0.659
NCI-H1355	0.432
NCI-H3122	0.223
NCI-H1437	0.325
NCI-H1755	0.457
NCI-H2023	0.34
HCC-15	0.755
NCI-H1793	0.338
PC-14	0.513
EKVX	0.364
LC-2-ad	0.508
NCI-H1944	0.351

same assay, conditions: first compound 1.265 µM

Cell Line	relative viability
HCC-78	0.461
NCI-H322M	0.467
LCLC-97TM1	0.256
NCI-H2009	0.184
A-427	0.485
NCI-H441	0.186
NCI-H661	0.392
NCI-H1734	0.37
NCI-H460	0.149
NCI-H2347	0.438
SK-LU-1	0.361
NCI-H1395	0.664
201T	0.338
NCI-H1915	0.515
HCC-827	0.475
LXF-289	0.639
NCI-H23	0.51

Cell Line	relative viability
NCI-H647	0.331
CAL-12T	0.41
NCI-H1651	0.532
EPLC-272H	0.323
NCI-H2228	0.726
NCI-H1792	0.606
NCI-H1355	0.401
NCI-H3122	0.191
NCI-H1437	0.282
NCI-H1755	0.465
NCI-H2023	0.354
HCC-15	0.854
NCI-H1793	0.304
PC-14	0.498
EKVX	0.351
LC-2-ad	0.49
NCI-H1944	0.285

same assay, conditions: first compound 4 µM

Cell Line	relative viability
HCC-78	0.435
NCI-H2009	0.136
NCI-H441	0.136
NCI-H661	0.374
NCI-H1734	0.353
NCI-H460	0.137
SK-LU-1	0.367
201T	0.32
NCI-H1915	0.466
HCC-827	0.534
LXF-289	0.55
NCI-H647	0.398
CAL-12T	0.122
NCI-H1651	0.499
NCI-H2228	0.802
NCI-H1355	0.389
NCI-H1437	0.227
NCI-H1755	0.428
NCI-H2023	0.401
HCC-15	0.586
PC-14	0.528
EKVX	0.329
LC-2-ad	0.498
NCI-H1944	0.276

same assay, conditions: first compound 12.65 µM

Cell Line	relative viability
HCC-78	0.476
NCI-H322M	0.478
LCLC-97TM1	0.214
NCI-H2009	0.202
A-427	0.57
NCI-H441	0.217
NCI-H661	0.414
NCI-H1734	0.379
NCI-H460	0.15
NCI-H2347	0.409
SK-LU-1	0.43
NCI-H1395	0.6
201T	0.333
NCI-H1915	0.554
HCC-827	0.439
LXF-289	0.557
NCI-H23	0.538

Cell Line	relative viability
NCI-H647	0.433
CAL-12T	0.448
NCI-H1651	0.474
EPLC-272H	0.334
NCI-H2228	0.795
NCI-H1792	0.581
NCI-H1355	0.438
NCI-H3122	0.191
NCI-H1437	0.213
NCI-H1755	0.485
NCI-H2023	0.378
HCC-15	0.748
NCI-H1793	0.34
PC-14	0.53
EKVX	0.376
LC-2-ad	0.502
NCI-H1944	0.326

same assay, conditions: first compound 40 µM

Cell Line	relative viability
HCC-78	0.473
NCI-H322M	0.5
LCLC-97TM1	0.249
NCI-H2009	0.191
A-427	0.554
NCI-H441	0.239
NCI-H661	0.374
NCI-H1734	0.369
NCI-H460	0.113
NCI-H2347	0.447
SK-LU-1	0.411
NCI-H1395	0.55
201T	0.365
NCI-H1915	0.587
HCC-827	0.527
LXF-289	0.619
NCI-H23	0.441

Cell Line	relative viability
NCI-H647	0.396
CAL-12T	0.409
NCI-H1651	0.517
EPLC-272H	0.368
NCI-H2228	0.801
NCI-H1792	0.596
NCI-H1355	0.437
NCI-H3122	0.178
NCI-H1437	0.242
NCI-H1755	0.439
NCI-H2023	0.353
HCC-15	0.885
NCI-H1793	0.328
PC-14	0.489
EKVX	0.353
LC-2-ad	0.555
NCI-H1944	0.351

compound: C1CC(C2=C(C1)C3=C(N2)C=CC(=C3)Cl)C(=O)N [Selisistat] + COc1cccc2cc(-c3nc([C@H]4CC[C@H](C(=O)O)CC4)n4ncnc(N)c34)[nH]c12 [OSI-027] (partner 0.5 µM); assay: as above; conditions: first compound 0.4 µM
Method in brief: as §1

Cell Line	relative viability
HCC-78	0.379
NCI-H322M	0.607
